In this assay the target is human activated kallikrein enzyme (Homo sapiens, UniProt P03952). Briefly: Inhibition of human activated plasma kallikrein, fluorogenic PFR-AMC substrate, 500 pM enzyme format. Particulars: 500 pM activated kallikrein; 300 μM PFR-AMC; 30 min preincubation; 10 min room temperature; pH 7.5; read-out: Primary Dose Response Assay: Average EC50. It is filed as biochemical. As to the method:
Compounds were evaluated for inhibition of the human activated kallikrein enzyme in two formats of an assay employing a fluorogenic peptide substrate. In one assay format, the concentrations of reagents were as follows: 20 mM Tris pH 7.5, 1 mM EDTA, 150 mM sodium chloride, 0.1% PEG-400, 0.1% Triton X-100, 500 pM activated kallikrein enzyme, 300 μM Pro-Phe-Arg-7-amido-4-methylcoumarin (PFR-AMC) substrate. Prior to reaction initiation with substrate, enzyme and inhibitors were preincubated for 30 min at room temperature. After initiation with substrate, reactions were incubated for 10 min at room temperature and fluorescence emission at 460 nm from 380 nm excitation measured with a microplate reader. In another assay format, the concentrations of reagents were as follows: 20 mM Tris pH 7.5, 1 mM EDTA, 150 mM sodium chloride, 0.1% PEG-400, 0.1% Triton X-100, 5 pM activated kallikrein enzyme, 300 uM PFR-AMC substrate. Prior to reaction initiation with substrate, enzyme and inhibitors were preincubated for 30 min at room temperature. After initiation with substrate, reactions were incubated for 18 hr at room temperature and fluorescence emission at 460 nm from 380 nm excitation measured with a microplate reader.
Table 35 provides the results of the assay in the format with 500 pM activated kallikrein assay.

human activated kallikrein enzyme, sequence (P03952 391-638 limits assumed): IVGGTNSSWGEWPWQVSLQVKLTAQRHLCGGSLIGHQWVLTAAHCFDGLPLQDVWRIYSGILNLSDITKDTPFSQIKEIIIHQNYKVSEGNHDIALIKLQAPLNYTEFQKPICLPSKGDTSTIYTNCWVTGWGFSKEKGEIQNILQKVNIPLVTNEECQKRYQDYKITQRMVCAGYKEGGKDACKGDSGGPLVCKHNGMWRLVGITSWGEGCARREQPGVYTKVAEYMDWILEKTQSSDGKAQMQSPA
human activated kallikrein enzyme, sequence (P03952 20-390 partner limits assumed): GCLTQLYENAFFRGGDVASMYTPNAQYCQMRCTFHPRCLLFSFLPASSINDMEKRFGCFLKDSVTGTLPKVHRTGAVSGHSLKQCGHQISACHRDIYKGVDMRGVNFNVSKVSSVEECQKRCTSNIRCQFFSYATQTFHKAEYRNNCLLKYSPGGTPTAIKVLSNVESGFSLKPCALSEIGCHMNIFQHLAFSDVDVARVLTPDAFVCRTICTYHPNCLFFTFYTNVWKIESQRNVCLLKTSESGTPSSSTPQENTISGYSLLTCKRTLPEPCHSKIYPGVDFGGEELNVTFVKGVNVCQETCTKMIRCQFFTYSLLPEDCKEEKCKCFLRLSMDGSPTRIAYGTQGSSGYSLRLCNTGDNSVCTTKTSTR

The term EC50 denotes the concentration that produces a half-maximal response. On to `Cc1cc2c(N)nccc2c(C)c1CNC(=O)c1cnn(Cc2cc3cc(Br)ccc3o2)c1` [Example 50, N-((1-amino-5,7-dimethylisoquinolin-6-yl)methyl)-1-((5-bromobenzofuran-2-yl)methyl)-1H-pyrazole-4-carboxamide], for which the EC50 was 1 to 10 nM.

On to `Cc1cc2c(N)nccc2c(C)c1CNC(=O)c1cnn(Cc2cc3cc(Br)ccc3s2)c1` [Example 51, N-((1-amino-5,7-dimethylisoquinolin-6-yl)methyl)-1-((5-bromobenzo[b]thiophen-2-yl)methyl)-1H-pyrazole-4-carboxamide], for which the concentration giving a half-maximal response (EC50) is less than 1 nM.

For the compound `Cc1cc2c(N)nccc2c(C)c1CNC(=O)c1cnn(Cc2ccc3c(cnn3C)c2)c1` [Example 52, N-((1-amino-5,7-dimethylisoquinolin-6-yl)methyl)-1-((1-methyl-1H-indazol-5-yl)methyl)-1H-pyrazole-4-carboxamide], the EC50 fell in the range of 1 to 10 nM.

Turning to `Cc1cc2c(N)nccc2c(C)c1CNC(=O)c1cnn(Cc2cn3ccccc3n2)c1` [Example 53, N-((1-amino-5,7-dimethylisoquinolin-6-yl)methyl)-1-(imidazo[1,2-a]pyridin-2-ylmethyl)-1H-pyrazole-4-carboxamide], the EC50 lay within 1 to 10 nM.

With `Cc1cc2c(N)nccc2c(C)c1CNC(=O)c1cnn(Cc2cn3cccc(C)c3n2)c1` [Example 54, N-((1-amino-5,7-dimethylisoquinolin-6-yl)methyl)-1-((8-methylimidazo[1,2-a]pyridin-2-yl)methyl)-1H-pyrazole-4-carboxamide], the EC50 fell in the range of 1 to 10 nM.

`CCOC(=O)Cc1ccc(Cn2cc(C(=O)NCc3c(C)cc4c(N)nccc4c3C)cn2)cc1` [Example 55, ethyl 2-(4-((4-(((1-amino-5,7-dimethylisoquinolin-6-yl)methyl)carbamoyl)-1H-pyrazol-1-yl)methyl)phenyl)acetate]: the EC50 lay in the range of 1 to 10 nM.

Turning to `Cc1cc2c(N)nccc2c(C)c1CNC(=O)c1cnn(Cc2ccc3ccccc3c2)c1` [Example 56, N-((1-amino-5,7-dimethylisoquinolin-6-yl)methyl)-1-(naphthalen-2-ylmethyl)-1H-pyrazole-4-carboxamide], the EC50 is 1 to 10 nM.

Consider `Cc1cc2c(N)nccc2c(C)c1CNC(=O)c1cnn(Cc2cc3cc(F)ccc3o2)c1` [Example 57, N-((1-amino-5,7-dimethylisoquinolin-6-yl)methyl)-1-((5-fluorobenzofuran-2-yl)methyl)-1H-pyrazole-4-carboxamide], for which the EC50 is 10 to 100 nM.

Take `Cc1cc2c(N)nccc2c(C)c1CNC(=O)c1cnn(Cc2ccc3c(c2)nnn3C)c1` [Example 58, N-((1-amino-5,7-dimethylisoquinolin-6-yl)methyl)-1-((1-methyl-1H-benzo[d][1,2,3]triazol-5-yl)methyl)-1H-pyrazole-4-carboxamide]: the EC50 fell in the range of 1 to 10 nM.

With `Cc1cc2c(N)nccc2c(C)c1CNC(=O)c1cnn(Cc2ccc3cnn(C)c3c2)c1` [Example 59, N-((1-amino-5,7-dimethylisoquinolin-6-yl)methyl)-1-((1-methyl-1H-indazol-6-yl)methyl)-1H-pyrazole-4-carboxamide], the EC50 fell in the range of 1 to 10 nM.

Turning to `Cc1cc2c(N)nccc2c(C)c1CNC(=O)c1cnn(Cc2ccc3ncccc3c2)c1` [Example 60, N-((1-amino-5,7-dimethylisoquinolin-6-yl)methyl)-1-(quinolin-6-ylmethyl)-1H-pyrazole-4-carboxamide], the concentration for a half-maximal effect (EC50) was less than 1 nM.

On to `Cc1cc2c(N)nccc2c(C)c1CNC(=O)c1cnn(Cc2cnc3cc(Cl)ccc3c2)c1` [Example 61, N-((1-amino-5,7-dimethylisoquinolin-6-yl)methyl)-1-((7-chloroquinolin-3-yl)methyl)-1H-pyrazole-4-carboxamide], for which the EC50 was less than 1 nM.

On to `Cc1cc2c(N)nccc2c(C)c1CNC(=O)c1cnn(Cc2cc3c(Cl)cccc3s2)c1` [Example 62, N-((1-amino-5,7-dimethylisoquinolin-6-yl)methyl)-1-((4-chlorobenzo[b]thiophen-2-yl)methyl)-1H-pyrazole-4-carboxamide], for which the 50% effective concentration (EC50) was in the range of 1 to 10 nM.

In the case of `Cc1cc2c(N)nccc2c(C)c1CNC(=O)c1cnn(Cc2ccc(CC(=O)N(C)C)cc2)c1` [Example 63, N-((1-amino-5,7-dimethylisoquinolin-6-yl)methyl)-1-(4-(2-(dimethylamino)-2-oxoethyl)benzyl)-1H-pyrazole-4-carboxamide], the EC50 was less than 1 nM.

Take `Cc1ccc2cc(Cn3cc(C(=O)NCc4c(C)cc5c(N)nccc5c4C)cn3)ccc2n1` [Example 64, N-((1-amino-5,7-dimethylisoquinolin-6-yl)methyl)-1-((2-methylquinolin-6-yl)methyl)-1H-pyrazole-4-carboxamide]: the EC50 is less than 1 nM.

Turning to `Cc1cc2c(N)nccc2c(C)c1CNC(=O)c1cnn(Cc2cc3cc(Cl)ccc3s2)c1` [Example 65, N-((1-amino-5,7-dimethylisoquinolin-6-yl)methyl)-1-((5-chlorobenzo[b]thiophen-2-yl)methyl)-1H-pyrazole-4-carboxamide], the EC50 is less than 1 nM.

On to `Cc1cc2c(N)nccc2c(C)c1CNC(=O)c1cnn(Cc2cc3cc(C(F)(F)F)ccc3s2)c1` [Example 66, N-((1-amino-5,7-dimethylisoquinolin-6-yl)methyl)-1-((5-(trifluoromethyl)benzo[b]thiophen-2-yl)methyl)-1H-pyrazole-4-carboxamide], for which the EC50 was in the range of 1 to 10 nM.

Take `COc1nc2ccccc2cc1Cn1cc(C(=O)NCc2c(C)cc3c(N)nccc3c2C)cn1` [Example 67, N-((1-amino-5,7-dimethylisoquinolin-6-yl)methyl)-1-((2-methoxyquinolin-3-yl)methyl)-1H-pyrazole-4-carboxamide]: the EC50 is 1 to 10 nM.

Take `Cc1cc2c(N)nccc2c(C)c1CNC(=O)c1cnn(Cc2nc3ccccc3n2C(F)F)c1` [Example 68, N-((1-amino-5,7-dimethylisoquinolin-6-yl)methyl)-1-((1-(difluoromethyl)-1H-benzo[d]imidazol-2-yl)methyl)-1H-pyrazole-4-carboxamide]: the EC50 fell in the range of 10 to 100 nM.

On to `Cc1cc2c(N)nccc2c(C)c1CNC(=O)c1cnn(Cc2ccc3cc(Br)ccc3n2)c1` [Example 69, N-((1-amino-5,7-dimethylisoquinolin-6-yl)methyl)-1-((6-bromoquinolin-2-yl)methyl)-1H-pyrazole-4-carboxamide], for which the EC50 fell in the range of 1 to 10 nM.

Regarding `Cc1cc2c(N)nccc2c(C)c1CNC(=O)c1cnn(Cc2cnc3ccc(Br)cc3c2)c1` [Example 70, N-((1-amino-5,7-dimethylisoquinolin-6-yl)methyl)-1-((6-bromoquinolin-3-yl)methyl)-1H-pyrazole-4-carboxamide], the EC50 was less than 1 nM.

As to `Cc1cc2c(N)nccc2c(C)c1CNC(=O)c1cnn(Cc2nc3ccccc3n2C(C)C)c1` [Example 71, N-((1-amino-5,7-dimethylisoquinolin-6-yl)methyl)-1-((1-isopropyl-1H-benzo[d]imidazol-2-yl)methyl)-1H-pyrazole-4-carboxamide], the concentration giving a half-maximal response (EC50) is 100 to 1000 nM.

For the compound `Cc1cc2c(N)nccc2c(C)c1CNC(=O)c1cnn(Cc2cnc3c(C)cccc3c2)c1` [Example 72, N-((1-amino-5,7-dimethylisoquinolin-6-yl)methyl)-1-((8-methylquinolin-3-yl)methyl)-1H-pyrazole-4-carboxamide], the EC50 is less than 1 nM.

As for `Cc1cc2c(N)nccc2c(C)c1CNC(=O)c1cnn(Cc2cc3cccc(C)c3nc2Cl)c1` [Example 73, N-((1-amino-5,7-dimethylisoquinolin-6-yl)methyl)-1-((2-chloro-8-methylquinolin-3-yl)methyl)-1H-pyrazole-4-carboxamide], the EC50 lay in the range of 1 to 10 nM.

As to `Cc1cc2c(N)nccc2c(C)c1CNC(=O)c1cnn(Cc2ccc3cnccc3c2)c1` [Example 74, N-((1-amino-5,7-dimethylisoquinolin-6-yl)methyl)-1-(isoquinolin-6-ylmethyl)-1H-pyrazole-4-carboxamide], the EC50 is 1 to 10 nM.

For the compound `Cc1cc2c(N)nccc2c(C)c1CNC(=O)c1cnn(Cc2nc3ccccc3n2C)c1` [Example 75, N-((1-amino-5,7-dimethylisoquinolin-6-yl)methyl)-1-((1-methyl-1H-benzo[d]imidazol-2-yl)methyl)-1H-pyrazole-4-carboxamide], the EC50 lay within 100 to 1000 nM.

In the case of `Cc1cc2c(N)nccc2c(C)c1CNC(=O)c1cnn(Cc2nc3ccccc3s2)c1` [Example 76, N-((1-amino-5,7-dimethylisoquinolin-6-yl)methyl)-1-(benzo[d]thiazol-2-ylmethyl)-1H-pyrazole-4-carboxamide], the EC50 was in the range of 10 to 100 nM.

On to `Cc1cc2c(N)nccc2c(C)c1CNC(=O)c1cnn(Cc2cncnc2)c1` [Example 77, N-((1-amino-5,7-dimethylisoquinolin-6-yl)methyl)-1-(pyrimidin-5-ylmethyl)-1H-pyrazole-4-carboxamide], for which the EC50 fell in the range of 100 to 1000 nM.

In the case of `Cc1cc2c(N)nccc2c(C)c1CNC(=O)c1cnn(Cc2ccccn2)c1` [Example 78, N-((1-amino-5,7-dimethylisoquinolin-6-yl)methyl)-1-(pyridin-2-ylmethyl)-1H-pyrazole-4-carboxamide], the EC50 was in the range of 100 to 1000 nM.

`Cc1cc2c(N)nccc2c(C)c1CNC(=O)c1cnn(Cc2ccc3nccnc3c2)c1` [Example 79, N-((1-amino-5,7-dimethylisoquinolin-6-yl)methyl)-1-(quinoxalin-6-ylmethyl)-1H-pyrazole-4-carboxamide]: the EC50 lay in the range of 1 to 10 nM.

For the origin of these results see US20260374754A1, “N-((ISOQUINOLIN-6-YL)METHYL)-1H-PYRAZOLE-4-CARBOXAMIDE DERIVATIVES AS PLASMA KALLIKREIN INHIBITORS FOR THE TREATMENT OF HEREDITARY ANGIODEMA” (Takeda Pharmaceutical Company Limited, priority 2022, published 2026).
